Data reported in publication PMC5843698, “Use of QSPR Modeling to Characterize In Vitro Binding of Drugs to a Gut-Restricted Polymer” (Pharmaceutical Research, 2018).
Counter-ions that a name gives are not always drawn. Like-named read-outs stand apart in the source and are kept apart here.

Tests used:
[1] = logP determination by titration in octanol/water
Description: The shift of the aqueous pKas in the presence of octanol was used to determine the logP of the different species.

[2] = pKa determination by titration in aqueous solution (UV or pH monitored)
Protocol: Test drug pKas were determined experimentally by titration in aqueous solution. Ionization state was monitored by UV or pH. Reported values are the average of three independent determinations. […] Drug concentration was in the range 17–31 μM (UV) or ≥0.4 mM (pH).

[3] = logD determination (liquid-liquid distribution chromatography, octanol-coated column)
Protocol: The logD of the sample was determined at pH 7.4 by liquid-liquid distribution chromatography. Compounds were eluted from an octanol-coated column with an octanol-saturated mobile phase adjusted to pH 7.4. Compound retention time was converted to logD value by comparison to the retention time of a set of standard compounds with well-characterized logD octanol values.

[4] = In vitro binding assay: free test drug recovered after 3 h incubation with and without patiromer in SGF, acetate buffer or SIF; conditions: for SGF / SIF / AB: QSPR input data; for SGF: test matrix SGF; for SIF: test matrix SIF; for AB: test matrix acetate buffer (AB); for In Vitro Binding (% Drug Recovered) SGF (pH 3): simulated gastric fluid, final pH 3.0; for In Vitro Binding (% Drug Recovered) SIF (pH 5.9): simulated intestinal fluid, final pH 5.9; for In vitro patiromer binding category: strong, weak or non-binding
Protocol: Patiromer binding to test compounds was assessed by comparing free test drug concentrations after incubation with and without patiromer. […] Test drug concentrations were based on the lowest clinically relevant dose of test drug in US prescribing information in a 1-L volume.
Three test buffers were used: simulated gastric fluid without added pepsin (SGF; initial pH 1.2), acetate buffer (AB; initial pH 4.5), and simulated intestinal fluid without added pancreatin (SIF; initial pH 6.8). Tween-20 was included at 0.05% v/v as a surfactant to aid in solubilizing test drugs.
Binding studies were performed in a 10 ml volume in 16×100 mm borosilicate tubes, and incubated for 3 h at 37°C with end-over-end rotation at ~25 rpm. After incubation, patiromer was allowed to settle for 5 min; supernatants were withdrawn and passed through a 0.45 μm filter, collected by centrifugation, and transferred to chromatography vials for analysis. Control samples containing buffer and drug, but without patiromer, were subjected to the same experimental process. For 24 of the test drugs, a reversed phase high performance liquid chromatography method was used for analysis in the three test matrices. […] During method qualification, we conducted a pretest of each drug in test media alone to assure no significant loss in recovery during the incubation or filtration steps. If there was not sufficient recovery compared to theoretical concentration, the drug could not be evaluated in that medium. The recovered drug in the presence or absence of patiromer was used to calculate percent recovery of test drug, and represents the geometric mean of 12 replicates.
To measure binding, each compound was co-incubated with patiromer using the highest single clinical dose of polymer and the minimum clinical dose of test drug. […] Following co-incubation, patiromer and any bound drug were removed by centrifugation and the remaining unbound (recovered) drug was measured in the supernatant.

[5] = aqueous solution, pKa (A = acid), acidic group, average of three determinations
[6] = acetate buffer pH 4.5, patiromer 25.2 g/L, 3 h, 37°C, geometric mean of 12 replicates
[7] = across SGF, AB and SIF test matrices
[8] = patiromer 25.2 g/L, 3 h, 37°C, geometric mean of 12 replicates
[9] = octanol-coated column with octanol-saturated mobile phase, pH 3
[10] = octanol-coated column with octanol-saturated mobile phase, pH 4.5
[11] = octanol-coated column with octanol-saturated mobile phase, pH 5.9
[12] = aqueous solution, pKa (B = base), basic group, average of three determinations

| Compound | logP ([1]; octanol/water) | SGF [4] | SIF [4] | AB [4] | In Vitro Binding (% Drug Recovered) Acetate Buffer (pH 4.5) [4, 6] [%] | Binding categories (level of in vitro interaction with patiromer) [4, 7] | In Vitro Binding (% Drug Recovered) SGF (pH 3) [4, 8] [%] | In Vitro Binding (% Drug Recovered) SIF (pH 5.9) [4, 8] [%] | chromatographic logD [3, 9] | chromatographic logD [3, 10] | chromatographic logD [3, 11] | further results |
| --- | --- | --- | --- | --- | --- | --- | --- | --- | --- | --- | --- | --- |
| CC(=O)CC(c1ccccc1)c1c(O)c2ccccc2oc1=O (racemic) [Warfarin (R/S), Warfarin] | – | – | – | – | – | – | – | – | – | – | – | logP [1]: 3.25; pKa [2]: 4.94; chromatographic logD ([3]; pH 3): 3.25; chromatographic logD ([3]; pH 4.5): 3.12; chromatographic logD ([3]; pH 5.9): 2.25 |
| Oc1ncnc2[nH]ncc12 [Allopurinol] | -0.3 | 85.7 | 94.2 | 90.1 | 90.1 | No binding (<30% drug bound in any test matrix) | 85.7 | 94.2 | -0.3 | -0.3 | -0.3 | pKa [2, 5]: 9.18 |
| CCOC(=O)C1=C(COCCN)NC(C)=C(C(=O)OC)C1c1ccccc1Cl (stereo not drawn) [Amlodipine besylate] | 3.39 | – | – | – | – | – | – | – | 1.44 | 1.44 | 1.46 | – |
| CC1(C)S[C@@H]2[C@H](NC(=O)[C@H](N)c3ccc(O)cc3)C(=O)N2[C@H]1C(=O)O [Amoxicillin] | -0.02 | – | 99.4 | 99.2 | 99.2 | No binding (<30% drug bound in any test matrix) | – | 99.4 | 1.65 | 0.46 | 0 | pKa (A = acid) ([2]; acidic group, average of three determinations): 2.60; pKa [2, 5]: 9.59; pKa [2, 12]: 7.35 |
| COc1ccc(-n2nc(C(N)=O)c3c2C(=O)N(c2ccc(N4CCCCC4=O)cc2)CC3)cc1 [Apixaban] | < 1.4 | 75.6 | 97.8 | 97.3 | 97.3 | No binding (<30% drug bound in any test matrix) | 75.6 | 97.8 | < 1.4 | < 1.4 | < 1.4 | – |
| CC(=O)Oc1ccccc1C(=O)O [Aspirin] | 0.9 | 100.7 | 99.9 | 99.8 | 99.8 | No binding (<30% drug bound in any test matrix) | 100.7 | 99.9 | 0.78 | -0.14 | -1.5 | – |
| CC(C)c1c(C(=O)Nc2ccccc2)c(-c2ccccc2)c(-c2ccc(F)cc2)n1CC[C@@H](O)C[C@@H](O)CC(=O)O [Atorvastatin calcium] | – | 91.2 | 101.1 | 93.3 | 93.3 | No binding (<30% drug bound in any test matrix) | 91.2 | 101.1 | – | – | – | – |
| CC1=C(C(=O)O)N2C(=O)[C@@H](NC(=O)[C@H](N)c3ccccc3)[C@H]2SC1 [Cephalexin] | – | 88.7 | 104.4 | 95 | 95 | No binding (<30% drug bound in any test matrix) | 88.7 | 104.4 | – | – | – | In vitro patiromer binding category [4]: non-binding |
| C[C@@H](NCCCc1cccc(C(F)(F)F)c1)c1cccc2ccccc12 [Cinacalcet HCl] | 5.58 | 13.4 | 18.3 | 19.3 | 19.3 | – | 13.4 | 18.3 | 2.41 | 2.44 | 2.83 | pKa [2, 12]: 8.85; In vitro patiromer binding category [4]: Strong patiromer binding |
| NS(=O)(=O)c1cc(C(=O)O)c(NCc2ccco2)cc1Cl [Furosemide] | – | 67.3 | 79.1 | 94.5 | 94.5 | Weak binder (30–55% bound in one test matrix) | 67.3 | 79.1 | – | – | – | – |
| Cc1cnc(C(=O)NCCc2ccc(S(=O)(=O)NC(=O)NC3CCCCC3)cc2)cn1 [Glipizide] | – | 72.9 | 98.5 | 96.5 | – | No binding (<30% drug bound in any test matrix) | 72.9 | 98.5 | – | – | – | In Vitro Binding (% Drug Recovered) Acetate Buffer (pH 4.5) ([4]; pH 4.5): 96.5% |
| O=C([O-])[O-].[Li+].[Li+] [Lithium carbonate] | – | – | – | – | 88.8 | – | 93.3 | 56.9 | – | – | – | Binding categories (level of in vitro interaction with patiromer) [4]: Weak binder (key: No binding: <30% drug bound in any test matrix; Weak binder: 30–55% bound in one test matrix; Strong binder: >55% bound in two or three test matrices) |
| COCCc1ccc(OCC(O)CNC(C)C)cc1 (stereo not drawn) [Metoprolol tartrate] | 1.91 | – | – | – | – | – | – | – | -4.7 | -3.2 | -1.8 | – |
| Cc1cc2nc3c(=O)[nH]c(=O)nc-3n(C[C@H](O)[C@H](O)[C@H](O)CO)c2cc1C [Riboflavin] | < -1.5 | – | – | – | – | – | – | – | < -1.5 | < -1.5 | < -1.5 | pKa [2, 5]: 9.87 |
| O=C(NC[C@H]1CN(c2ccc(N3CCOCC3=O)cc2)C(=O)O1)c1ccc(Cl)s1 [Rivaroxaban] | 1.43 | 71.9 | 95.1 | 92.9 | 92.9 | No binding (<30% drug bound in any test matrix) | 71.9 | 95.1 | 1.43 | 1.43 | 1.43 | – |
| CC(=O)S[C@@H]1CC2=CC(=O)CC[C@]2(C)[C@H]2CC[C@@]3(C)[C@@H](CC[C@@]34CCC(=O)O4)[C@H]12 [Spironolactone] | 2.53 | 78.7 | 96.8 | 98.6 | 98.6 | No binding (<30% drug bound in any test matrix) | 78.7 | 96.8 | 2.53 | 2.53 | 2.53 | – |
| CCCCC(=O)N(Cc1ccc(-c2ccccc2-c2nnn[nH]2)cc1)[C@H](C(=O)O)C(C)C [Valsartan] | – | 86.4 | 98 | 101.4 | 101.4 | No binding (<30% drug bound in any test matrix) | 86.4 | 98 | – | – | – | In vitro patiromer binding category [4]: non-binding |
| Digoxin | – | – | 103.4 | 109.3 | 109.3 | No binding (<30% drug bound in any test matrix) | – | 103.4 | – | – | – | – |
